In US20090042987A1, “TREATMENT OF NEUROPATHIC PAIN” (priority 2007, published 2009):
Entries after “also recorded” stand apart in the source; their conditions may differ.

What was measured:
STZ-diabetic rats = test: Behavioural observations / adverse effects in STZ-diabetic rats; assay type: in vivo, rat; details: tranilast 30-400 mg/kg oral, 7 consecutive twice-daily bolus doses
Text: Behavioural Observations. STZ-diabetic rats were monitored for visible and audible signs of distress throughout the testing period. The visible signs of distress included behavioural changes such as complete immobility, movement with abnormal gait, agitation, aggression, wet dog shakes, excessive grooming, restlessness with constant movement, repeated sudden movements or staring.

[1] = system: drug-naïve STZ-diabetic rats; test: von Frey paw withdrawal thresholds, drug-naïve STZ-diabetic rats, Example 2; assay type: in vivo, rat; details: for Mean (±SEM) AUC (area under the normalized PWT versus time curve) / Mean (±SEM) Peak response (PWT) / Mean (±SEM) % MPR at peak: after 7th consecutive twice-daily dose; for Mean (±SEM) % MPR at peak: 100% MPR = full reversal of tactile allodynia
Procedure: Experimental Animals Ethical approval for this study was obtained from the Animal Experimentation Ethics Committee of The University of Queensland. Adult male Sprague-Dawley (SD) rats (222±4 g) were used for this study. Rats were housed in a temperature controlled room (21+2.0 C) with a 12/12 hour light/dark cycle. Food and water were available ad libitum. Initiation of drug administration occurred at 8-11 weeks post-STZ administration for rats in Experiment 1 (PCT-001) and at 10-12 weeks post-STZ administration for rats in Experiment 2 (PCT-007).
Test Article Tranilast was supplied by the Sponsor and stored at −4° C. until use. Gabapentin (100 mg/kg, dissolved in water for injection) was utilized as the positive control for this study.
Test Article and Vehicle Preparation Test article formulations were prepared freshly on the day of administration by weighing the appropriate amount of bulk powder and suspending it in the required volume of vehicle. Carboxymethyl cellulose ((CMC) 0.5% in water for injection) was utilized as the vehicle for this study.
Test Article Administration. […] The maximum oral gavage volume administered in this study was […]. 4.4
STZ-Diabetic Rat Model of Painful Diabetic Neuropathy. Painful diabetic neuropathy is a common long-term complication of diabetes in humans that develops as a result of a sustained biochemical nerve injury. […] Following the induction of diabetes with intravenous STZ at 70-80 mg/kg, it generally takes 6-8 wks for tactile allodynia, the defining symptom of PDN, to fully develop in both rat hindpaws.
Induction of STZ-Diabetes in Rats. On day 0, rats were anaesthetized with 3% isoflurane:97% O2 and a short polyethylene cannula (0.5 mm ID, 0.8 mm OD) was inserted into the jugular vein to facilitate the intravenous (i.v.) administration of a single dose of streptozotocin (STZ: 70-80 mg/kg). After STZ injection, the cannula was removed and the jugular vein was tied off and the wound was closed. Rats received subcutaneous benzylpenicillin (60 mg) prior to surgery to prevent infection and were kept warm during surgical recovery. Rats were housed singly prior to further experimentation and were monitored daily from the time of STZ administration with regard to general health and well-being.
Von Frey Assessment of Paw Withdrawal Thresholds. Calibrated von Frey filaments were used to determine the lowest mechanical threshold required to evoke a brisk paw withdrawal reflex in the rat hindpaws. Briefly, rats were transferred individually to wire mesh testing cages (20 cm×20 cm×20 cm) and allowed to acclimatize for approximately 10-20 min prior to von Frey testing. Commencing with the von Frey filament that produced the 6 g force, the filament was applied to the plantar surface of the hindpaw until the filament buckled slightly. Absence of a response after 3 s prompted use of the next filament of increasing weight. A withdrawal response within 3 s prompted use of the next filament of decreasing weight. Filaments used produced buckling weights of 2, 4, 6, 8, 10, 12, 14, 16, 18 and 20 g. […] Tactile allodynia is regarded as being fully developed when von Frey PWTs in the injured hindpaws are <6 g.
Restoring von-Frey PWTs in the hindpaws from <6 g to pre-STZ surgery levels (12±2 g) is the treatment goal representing full reversal of tactile allodynia. If drug treatment increases PWTs above pre-surgical baseline values (i.e. >12±2 g), such a response is classified as antinociception. Before administration of STZ, baseline von Frey measurements were assessed. Following STZ administration, baseline PWTs were assessed in the hindpaws at week 8-11 to confirm the development of diabetes-induced tactile allodynia.
Dose-Response Curve for Tranilast in Drug-Naive STZ-Diabetic Rats. […]

## COc1ccc(/C=C/C(=O)Nc2ccccc2C(=O)O)cc1OC [Tranilast, 2-[[3-(3,4-dimethoxyphenyl)-1-oxo-2-propenyl]amino]benzoic acid]
STZ-diabetic rats
  Adverse (behavioural) effects: no discernible adverse effects; also recorded: did not produce discernible adverse behavioural effects
[1]; tranilast 100 mg/kg oral twice-daily, prior to dose 1
  Mean (±SEM) von Frey Paw Withdrawal threshold assessed prior to dose: 4.8 ± 0.5 g
[1]; tranilast 100 mg/kg oral twice-daily, prior to dose 3
  Mean (±SEM) von Frey Paw Withdrawal threshold assessed prior to dose: 4.4 ± 0.7 g
[1]; tranilast 100 mg/kg oral twice-daily, prior to dose 5
  Mean (±SEM) von Frey Paw Withdrawal threshold assessed prior to dose: 5.1 ± 0.5 g
[1]; tranilast 100 mg/kg oral twice-daily, prior to dose 7
  Mean (±SEM) von Frey Paw Withdrawal threshold assessed prior to dose: 5.3 ± 0.5 g
[1]; tranilast 100 mg/kg oral twice-daily, time 0 h (pre-dose)
  Mean (±SEM) von Frey Paw Withdrawal threshold following the 7th consecutive dose: 5.3 ± 0.4 g
[1]; tranilast 100 mg/kg oral twice-daily, time 0.15 h
  Mean (±SEM) von Frey Paw Withdrawal threshold following the 7th consecutive dose: 6.0 ± 0 g
[1]; tranilast 100 mg/kg oral twice-daily, time 0.5 h
  Mean (±SEM) von Frey Paw Withdrawal threshold following the 7th consecutive dose: 7.25 ± 0.5 g
[1]; tranilast 100 mg/kg oral twice-daily, time 0.75 h
  Mean (±SEM) von Frey Paw Withdrawal threshold following the 7th consecutive dose: 7.75 ± 0.25 g
[1]; tranilast 100 mg/kg oral twice-daily, time 1 h
  Mean (±SEM) von Frey Paw Withdrawal threshold following the 7th consecutive dose: 8.25 ± 0.5 g
[1]; tranilast 100 mg/kg oral twice-daily, time 1.25 h
  Mean (±SEM) von Frey Paw Withdrawal threshold following the 7th consecutive dose: 8.0 ± 0 g
[1]; tranilast 100 mg/kg oral twice-daily, time 1.5 h
  Mean (±SEM) von Frey Paw Withdrawal threshold following the 7th consecutive dose: 6.75 ± 0.5 g
[1]; tranilast 100 mg/kg oral twice-daily, time 2 h
  Mean (±SEM) von Frey Paw Withdrawal threshold following the 7th consecutive dose: 7.0 ± 0.6 g
[1]; tranilast 100 mg/kg oral twice-daily, time 3 h
  Mean (±SEM) von Frey Paw Withdrawal threshold following the 7th consecutive dose: 6.25 ± 0.3 g
[1]; tranilast 100 mg/kg oral
  Mean (±SEM) AUC (area under the normalized PWT versus time curve): 4.98 ± 1.7
  Mean (±SEM) Peak response (PWT): 8.25 ± 0.5
  Mean (±SEM) % MPR at peak: 53.2 ± 3.3%
[1]; tranilast 200 mg/kg oral twice-daily, prior to dose 1
  Mean (±SEM) von Frey Paw Withdrawal threshold assessed prior to dose: 4.9 ± 0.6 g
[1]; tranilast 200 mg/kg oral twice-daily, prior to dose 3
  Mean (±SEM) von Frey Paw Withdrawal threshold assessed prior to dose: 5.2 ± 0.6 g
[1]; tranilast 200 mg/kg oral twice-daily, prior to dose 5
  Mean (±SEM) von Frey Paw Withdrawal threshold assessed prior to dose: 5.2 ± 0.5 g
[1]; tranilast 200 mg/kg oral twice-daily, prior to dose 7
  Mean (±SEM) von Frey Paw Withdrawal threshold assessed prior to dose: 5.2 ± 0.5 g
[1]; tranilast 200 mg/kg oral twice-daily, time 0 h (pre-dose)
  Mean (±SEM) von Frey Paw Withdrawal threshold following the 7th consecutive dose: 5.2 ± 0.4 g
[1]; tranilast 200 mg/kg oral twice-daily, time 0.15 h
  Mean (±SEM) von Frey Paw Withdrawal threshold following the 7th consecutive dose: 5.75 ± 0.7 g
[1]; tranilast 200 mg/kg oral twice-daily, time 0.5 h
  Mean (±SEM) von Frey Paw Withdrawal threshold following the 7th consecutive dose: 7.25 ± 0.5 g
[1]; tranilast 200 mg/kg oral twice-daily, time 0.75 h
  Mean (±SEM) von Frey Paw Withdrawal threshold following the 7th consecutive dose: 8.25 ± 0.25 g
[1]; tranilast 200 mg/kg oral twice-daily, time 1 h
  Mean (±SEM) von Frey Paw Withdrawal threshold following the 7th consecutive dose: 8.75 ± 0.5 g
[1]; tranilast 200 mg/kg oral twice-daily, time 1.25 h
  Mean (±SEM) von Frey Paw Withdrawal threshold following the 7th consecutive dose: 7.25 ± 0.25 g
[1]; tranilast 200 mg/kg oral twice-daily, time 1.5 h
  Mean (±SEM) von Frey Paw Withdrawal threshold following the 7th consecutive dose: 7.0 ± 0.5 g
[1]; tranilast 200 mg/kg oral twice-daily, time 2 h
  Mean (±SEM) von Frey Paw Withdrawal threshold following the 7th consecutive dose: 7.25 ± 0.25 g
[1]; tranilast 200 mg/kg oral twice-daily, time 3 h
  Mean (±SEM) von Frey Paw Withdrawal threshold following the 7th consecutive dose: 6.0 ± 0 g
[1]; tranilast 200 mg/kg oral
  Mean (±SEM) AUC (area under the normalized PWT versus time curve): 5.75 ± 0.7
  Mean (±SEM) Peak response (PWT): 8.75 ± 0.5
  Mean (±SEM) % MPR at peak: 62.6 ± 11.7%
[1]; tranilast 300 mg/kg oral twice-daily, prior to dose 1
  Mean (±SEM) von Frey Paw Withdrawal threshold assessed prior to dose: 4.2 ± 0.6 g
[1]; tranilast 300 mg/kg oral twice-daily, prior to dose 3
  Mean (±SEM) von Frey Paw Withdrawal threshold assessed prior to dose: 3.7 ± 0.8 g
[1]; tranilast 300 mg/kg oral twice-daily, prior to dose 5
  Mean (±SEM) von Frey Paw Withdrawal threshold assessed prior to dose: 3.9 ± 0.7 g
[1]; tranilast 300 mg/kg oral twice-daily, prior to dose 7
  Mean (±SEM) von Frey Paw Withdrawal threshold assessed prior to dose: 4.8 ± 0.6 g
[1]; tranilast 300 mg/kg oral twice-daily, time 0 h (pre-dose)
  Mean (±SEM) von Frey Paw Withdrawal threshold following the 7th consecutive dose: 4.8 ± 0.5 g
[1]; tranilast 300 mg/kg oral twice-daily, time 0 h (pre-dose), listed as tranilast
  Mean (±SEM) von Frey Paw Withdrawal threshold following the 7th consecutive dose: 4.8 (±0.5) g
[1]; tranilast 300 mg/kg oral twice-daily, time 0.15 h
  Mean (±SEM) von Frey Paw Withdrawal threshold following the 7th consecutive dose: 5.4 ± 0.7 g
